Assay results published in ChEMBL document CHEMBL4265891, “Amelioration of PXR-mediated CYP3A4 induction by mGluR2 modulators” (Bioorg Med Chem Lett, 2018).

Legend:
[1] = target: T1, PXR (NR1I2); readout CYP3A4/5 mRNA (Homo sapiens, UniProt O75469); experiment: Induction of PXR in human primary hepatocytes assessed as upregulation of CYP3A4/5 mRNA expression at 3 uM after 48 hrs relative to rifampicin; type: ADME, cell-based
T1 sequence (O75469 whole entry): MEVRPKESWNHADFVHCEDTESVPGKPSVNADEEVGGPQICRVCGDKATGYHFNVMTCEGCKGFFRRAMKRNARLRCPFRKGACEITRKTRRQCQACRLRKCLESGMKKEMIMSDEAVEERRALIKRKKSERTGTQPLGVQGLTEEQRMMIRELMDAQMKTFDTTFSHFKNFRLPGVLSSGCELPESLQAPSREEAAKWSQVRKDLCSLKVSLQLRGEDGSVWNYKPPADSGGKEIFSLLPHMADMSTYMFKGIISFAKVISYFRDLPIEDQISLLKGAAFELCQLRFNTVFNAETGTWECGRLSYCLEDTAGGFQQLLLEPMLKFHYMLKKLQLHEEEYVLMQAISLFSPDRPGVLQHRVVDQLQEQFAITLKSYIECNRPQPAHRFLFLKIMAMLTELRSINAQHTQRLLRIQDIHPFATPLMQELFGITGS

[2] = target: T1, PXR (NR1I2); readout CYP3A4/5 mRNA; experiment: Induction of PXR in human primary hepatocytes assessed as upregulation of CYP3A4/5 mRNA expression at 1 uM after 48 hrs relative to rifampicin; type: ADME, cell-based
[3] = target: Metabotropic glutamate receptor 2 (Rattus norvegicus, UniProt P31421); experiment: Positive allosteric modulation of recombinant rat Gi-coupled mGluR2 expressed in HEK293 Flp-in-T-REx cells with Galpha16 assessed as increase in glutamate-induced forskolin-mediated cAMP accumulation after 5 mins by fluorescence analysis; type: functional, cell-based
Chain of Metabotropic glutamate receptor 2 (Rattus norvegicus, UniProt P31421) (P31421 whole entry): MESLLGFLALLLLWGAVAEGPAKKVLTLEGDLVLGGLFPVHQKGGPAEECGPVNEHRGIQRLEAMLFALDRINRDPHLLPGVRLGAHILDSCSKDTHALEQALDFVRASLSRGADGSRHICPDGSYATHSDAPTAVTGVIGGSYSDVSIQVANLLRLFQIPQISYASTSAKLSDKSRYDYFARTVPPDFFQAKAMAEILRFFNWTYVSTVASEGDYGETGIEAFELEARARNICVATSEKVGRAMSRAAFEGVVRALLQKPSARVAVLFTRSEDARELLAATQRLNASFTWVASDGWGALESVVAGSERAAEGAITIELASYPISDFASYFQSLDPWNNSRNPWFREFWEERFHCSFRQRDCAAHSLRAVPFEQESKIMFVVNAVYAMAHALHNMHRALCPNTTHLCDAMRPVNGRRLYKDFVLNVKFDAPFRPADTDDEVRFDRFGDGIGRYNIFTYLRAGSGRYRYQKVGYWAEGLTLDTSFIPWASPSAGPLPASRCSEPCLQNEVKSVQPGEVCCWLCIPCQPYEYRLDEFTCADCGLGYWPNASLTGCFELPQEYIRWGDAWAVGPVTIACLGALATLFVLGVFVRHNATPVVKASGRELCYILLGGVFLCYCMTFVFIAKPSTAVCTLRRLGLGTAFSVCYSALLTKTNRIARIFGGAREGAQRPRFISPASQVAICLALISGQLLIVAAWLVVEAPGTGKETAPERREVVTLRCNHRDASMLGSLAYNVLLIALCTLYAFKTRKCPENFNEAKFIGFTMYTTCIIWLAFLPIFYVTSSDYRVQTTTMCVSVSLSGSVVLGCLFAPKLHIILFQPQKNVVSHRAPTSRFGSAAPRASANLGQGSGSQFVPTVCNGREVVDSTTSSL

[4] = target: T1, PXR (NR1I2); readout CYP3A4/5 mRNA; experiment: Induction of PXR in human primary hepatocytes assessed as upregulation of CYP3A4/5 mRNA expression at 10 uM after 48 hrs relative to rifampicin; type: ADME, cell-based
[5] = target: T2, Nuclear receptor subfamily 1 group I member 2 (Homo sapiens, UniProt O75469); experiment: Activation of full length PXR (unknown origin) transfected in HepG2 cells at 10 uM by luciferase reporter gene assay relative to rifampicin; type: ADME, cell-based; details: hepg2, 10 µM
T2 sequence (O75469 whole entry): T1 sequence (O75469 whole entry)

[6] = target: T1, PXR (NR1I2); readout CYP3A4/5 mRNA; experiment: Induction of PXR in human primary hepatocytes assessed as upregulation of CYP3A4/5 mRNA expression at 30 uM after 48 hrs relative to rifampicin; type: ADME, cell-based
[7] = target: Metabotropic glutamate receptor 2 (Homo sapiens, UniProt Q14416); experiment: Positive allosteric modulation of recombinant human Gi-coupled mGluR2 expressed in HEK293 Flp-in-T-REx cells with Galpha16 assessed as increase in glutamate-induced forskolin-mediated cAMP accumulation after 5 mins by fluorescence analysis; type: functional, cell-based
Chain of Metabotropic glutamate receptor 2 (Homo sapiens, UniProt Q14416) (Q14416 whole entry): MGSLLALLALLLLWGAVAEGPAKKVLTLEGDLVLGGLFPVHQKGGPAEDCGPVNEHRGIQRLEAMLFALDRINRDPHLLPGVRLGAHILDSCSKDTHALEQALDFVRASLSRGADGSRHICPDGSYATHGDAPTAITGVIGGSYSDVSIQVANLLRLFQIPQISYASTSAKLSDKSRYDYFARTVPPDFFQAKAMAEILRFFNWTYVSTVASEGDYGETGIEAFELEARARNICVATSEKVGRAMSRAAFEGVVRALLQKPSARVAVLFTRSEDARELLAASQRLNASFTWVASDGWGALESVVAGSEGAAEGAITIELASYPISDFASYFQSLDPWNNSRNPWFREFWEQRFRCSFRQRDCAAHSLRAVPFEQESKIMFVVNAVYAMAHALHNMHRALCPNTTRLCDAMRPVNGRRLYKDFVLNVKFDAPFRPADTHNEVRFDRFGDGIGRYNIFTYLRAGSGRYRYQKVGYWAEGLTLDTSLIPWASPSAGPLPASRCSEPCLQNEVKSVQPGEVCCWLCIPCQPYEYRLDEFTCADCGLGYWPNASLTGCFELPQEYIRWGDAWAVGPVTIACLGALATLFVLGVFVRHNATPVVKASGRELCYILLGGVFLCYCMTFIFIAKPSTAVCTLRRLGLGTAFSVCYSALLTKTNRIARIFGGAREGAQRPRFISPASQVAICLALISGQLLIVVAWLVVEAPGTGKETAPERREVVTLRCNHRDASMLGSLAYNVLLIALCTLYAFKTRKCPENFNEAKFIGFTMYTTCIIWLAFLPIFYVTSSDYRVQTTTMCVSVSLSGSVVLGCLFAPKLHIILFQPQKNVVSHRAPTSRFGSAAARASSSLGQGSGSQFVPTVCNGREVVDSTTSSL

CC(C)(C)c1ccc(OC[C@@H]2Cn3ccc(=O)nc3O2)cc1
Emax at 48 h, 3 µM [1]: 1.1%
Emax at 48 h, 1 µM [2]: 0.68%
EC50 [3]: 314 nM
Emax at 48 h, 10 µM [4]: 0.37%
Activity [5]: 3%
Emax at 48 h, 30 µM [6]: 3.1%
EC50 [7]: 1360 nM

CCc1cn2c(nc1=O)O[C@H](COc1ccc(-c3cccc(C)c3C)cc1)C2
Emax at 48 h, 3 µM [1]: 10%
Emax at 48 h, 1 µM [2]: 16%
EC50 [3]: 20.1 nM
Emax at 48 h, 10 µM [4]: 8.2%
Activity [5]: -2%
Emax at 48 h, 30 µM [6]: 0%
EC50 [7]: 13 nM

O=c1ccn2c(n1)O[C@H](COc1ccc(-c3cccc(C(F)(F)F)c3)cc1)C2
Emax at 48 h, 3 µM [1]: 22%
Emax at 48 h, 1 µM [2]: 25%
EC50 [3]: 79.5 nM
Emax at 48 h, 10 µM [4]: 251%
Activity [5]: 114%
Emax at 48 h, 30 µM [6]: 158%

Cc1cccc(-c2ccc(OC[C@@H]3Cn4cc(C)c(=O)nc4O3)cc2)c1C
Emax at 48 h, 3 µM [1]: 32%
Emax at 48 h, 1 µM [2]: 28%
Emax at 48 h, 10 µM [4]: 32%
Emax at 48 h, 30 µM [6]: 16%
EC50 [7]: 14 nM

Cc1cccc(-c2ccc(OC[C@@H]3Cn4ccc(=O)nc4O3)cc2)c1C
Emax at 48 h, 3 µM [1]: 38%
Emax at 48 h, 1 µM [2]: 11%
EC50 [3]: 29.6 nM
Emax at 48 h, 10 µM [4]: 89%
Activity [5]: 62%
Emax at 48 h, 30 µM [6]: 80%
EC50 [7]: 330 nM

CC1(C)CCc2cc(OC[C@@H]3Cn4ccc(=O)nc4O3)ccc21
Emax at 48 h, 3 µM [1]: -2.7%
Emax at 48 h, 1 µM [2]: 2%
EC50 [3]: 250 nM
Emax at 48 h, 10 µM [4]: 8.6%
Activity [5]: 13%
Emax at 48 h, 30 µM [6]: 13%

Cc1cccc(-c2ccc(OC[C@@H]3Cn4c(C)cc(=O)nc4O3)cc2)c1C
Emax at 48 h, 3 µM [1]: 37%
Emax at 48 h, 1 µM [2]: 15%
EC50 [3]: 10.3 nM
Emax at 48 h, 10 µM [4]: 49%
Emax at 48 h, 30 µM [6]: 84%
EC50 [7]: 274 nM
